Test results taken from patent publication US20260262643A1, “HERBICIDAL BENZOXAZINES” (FMC CORPORATION, priority 2022, published 2026).

Columns and labels:
[1] = tested on: barnyardgrass; assay: Test C postemergence; assay type: in vivo, Echinochloa crusgalli; conditions: 10 days
Outline: (§1)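 Test material, in non-phytotoxic solvent with surfactant, was sprayed on the soil directly after seeding (preemergence) or on young plants of 2–10 cm with one to two leaves (postemergence). Greenhouse, 10 days; 0–100 visual control scale.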

[2] = tested on: corn; assay: Test C preemergence; assay type: in vivo, Zea mays; conditions: 0 to 100 scale (0 no effect, 100 complete control); for Plant response rating, Corn: Preemergence, 500 g ai/ha, visual rating after 10 days; for Corn plant response rating: Test C, preemergence, 125 g ai/ha
Outline: as §1

[3] = tested on: soybean; assay: Test C postemergence; assay type: in vivo, Glycine max; conditions: 10 days
Outline: as §1

[4] = tested on: wheat; assay: Test C postemergence; assay type: in vivo, Triticum aestivum; conditions: 10 days
Outline: as §1

[5] = tested on: blackgrass; assay: Test C postemergence; assay type: in vivo, Alopecurus myosuroides; conditions: 10 days
Outline: as §1

[6] = tested on: corn; assay: Test C postemergence; assay type: in vivo, Zea mays; conditions: 10 days
Outline: as §1

[7] = tested on: barnyardgrass; assay: Test D flooded paddy test; assay type: in vivo, Echinochloa crus-galli; conditions: 250 g ai/ha, applied to paddy water, visual rating after 13 to 14 days, scale 0 to 100 (0 no effect, 100 complete control)
Outline: (§2)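 Visual ratings from 0, meaning no effect, to 100, meaning complete control, were assigned against untreated controls 13 to 14 days after compounds were added to the floodwater of pots kept 3 cm deep, with plants at the 2-leaf stage.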

[8] = tested on: ryegrass, Italian; assay: Test C preemergence; assay type: in vivo, Lolium multiflorum; conditions: 0 to 100 scale (0 no effect, 100 complete control); for Plant response rating, Ryegrass, Italian: Preemergence, 500 g ai/ha, visual rating after 10 days; for Ryegrass, Italian plant response rating: Test C, preemergence, 125 g ai/ha
Outline: as §1

[9] = tested on: oat, wild; assay: Test C postemergence; assay type: in vivo, Avena fatua; conditions: 10 days
Outline: as §1

[10] = tested on: kochia; assay: Test C postemergence; assay type: in vivo, Bassia scoparia; conditions: 10 days
Outline: as §1

[11] = tested on: oat, wild; assay: Test C preemergence; assay type: in vivo, Avena fatua; conditions: 0 to 100 scale (0 no effect, 100 complete control); for Plant response rating, Oat, Wild: Preemergence, 500 g ai/ha, visual rating after 10 days; for Oat, Wild plant response rating: Test C, preemergence, 125 g ai/ha
Outline: as §1

[12] = tested on: soybean; assay: Test C preemergence; assay type: in vivo, Glycine max; conditions: 0 to 100 scale (0 no effect, 100 complete control); for Plant response rating, Soybean: Preemergence, 500 g ai/ha, visual rating after 10 days; for Soybean plant response rating: Test C, preemergence, 125 g ai/ha
Outline: as §1

[13] = tested on: pigweed, palmer; assay: Test C preemergence; assay type: in vivo, Amaranthus palmeri; conditions: 0 to 100 scale (0 no effect, 100 complete control); for Plant response rating, Pigweed, Palmer: Preemergence, 500 g ai/ha, visual rating after 10 days; for Pigweed, Palmer plant response rating: Test C, preemergence, 125 g ai/ha
Outline: as §1

[14] = tested on: barnyardgrass; assay: Test C preemergence; assay type: in vivo, Echinochloa crusgalli; conditions: 0 to 100 scale (0 no effect, 100 complete control); for Barnyardgrass plant response rating: 125 g ai/ha, preemergence; for Plant response rating, Barnyardgrass: Preemergence, 500 g ai/ha, visual rating after 10 days
Outline: as §1

[15] = tested on: kochia; assay: Test C preemergence; assay type: in vivo, Bassia scoparia; conditions: 0 to 100 scale (0 no effect, 100 complete control); for Plant response rating, Kochia: Preemergence, 500 g ai/ha, visual rating after 10 days; for Kochia plant response rating: Test C, preemergence, 125 g ai/ha
Outline: as §1

[16] = tested on: horseweed; assay: Test C postemergence; assay type: in vivo, Erigeron canadensis; conditions: 10 days
Outline: as §1

[17] = tested on: blackgrass; assay: Test C preemergence; assay type: in vivo, Alopecurus myosuroides; conditions: 0 to 100 scale (0 no effect, 100 complete control); for Plant response rating, Blackgrass: Preemergence, 500 g ai/ha, visual rating after 10 days; for Blackgrass plant response rating: Test C, preemergence, 125 g ai/ha
Outline: as §1

[18] = tested on: ragweed; assay: Test C postemergence; assay type: in vivo, Ambrosia artemisiifolia; conditions: 10 days
Outline: as §1

[19] = tested on: sedge, umbrella; assay: Test D flooded paddy test; assay type: in vivo, Cyperus difformis; conditions: 250 g ai/ha, applied to paddy water, visual rating after 13 to 14 days, scale 0 to 100 (0 no effect, 100 complete control)
Outline: as §2

[20] = tested on: galium; assay: Test C postemergence; assay type: in vivo, Galium aparine; conditions: 10 days
Outline: as §1

[21] = tested on: ragweed; assay: Test C preemergence; assay type: in vivo, Ambrosia artemisiifolia; conditions: 0 to 100 scale (0 no effect, 100 complete control); for Plant response rating, Ragweed: Preemergence, 500 g ai/ha, visual rating after 10 days; for Ragweed plant response rating: Test C, preemergence, 125 g ai/ha
Outline: as §1

[22] = tested on: pigweed, palmer; assay: Test C postemergence; assay type: in vivo, Amaranthus palmeri; conditions: 10 days
Outline: as §1

[23] = tested on: ducksalad; assay: Test D flooded paddy test; assay type: in vivo, Heteranthera limosa; conditions: 250 g ai/ha, applied to paddy water, visual rating after 13 to 14 days, scale 0 to 100 (0 no effect, 100 complete control)
Outline: as §2

[24] = tested on: green foxtail; assay: Test C preemergence; assay type: in vivo, Setaria viridis; conditions: 0 to 100 scale (0 no effect, 100 complete control); for Plant response rating, Foxtail, Green: Preemergence, 500 g ai/ha, visual rating after 10 days; for Foxtail, Green plant response rating: Test C, preemergence, 125 g ai/ha
Outline: as §1

[25] = tested on: wheat; assay: Test C preemergence; assay type: in vivo, Triticum aestivum; conditions: 0 to 100 scale (0 no effect, 100 complete control); for Plant response rating, Wheat: Preemergence, 500 g ai/ha, visual rating after 10 days; for Wheat plant response rating: Test C, preemergence, 125 g ai/ha
Outline: as §1

[26] = tested on: ryegrass, Italian; assay: Test C postemergence; assay type: in vivo, Lolium multiflorum; conditions: 10 days
Outline: as §1

[27] = tested on: green foxtail; assay: Test C postemergence; assay type: in vivo, Setaria viridis; conditions: 10 days
Outline: as §1

[28] = tested on: rice; assay: Test D flooded paddy test; assay type: in vivo, Oryza sativa; conditions: 250 g ai/ha, applied to paddy water, visual rating after 13 to 14 days, scale 0 to 100 (0 no effect, 100 complete control)
Outline: as §2

[29] = 125 g ai/ha, postemergence, 0 to 100 scale, 0 no effect, 100 complete control
[30] = Postemergence, 500 g ai/ha, visual 0 to 100 scale (0 no effect, 100 complete control)

SMILES: CCn1cnc(-c2cccc(C(=O)N3C[C@H](C)Oc4c(C)cccc43)c2)n1 [Compound 165]
- Plant response rating, Barnyardgrass [1, 29]: 0
- Plant response rating, Barnyardgrass [1, 30]: 10
- Plant response rating, Corn [2]: 0
- Corn plant response rating [2]: 0
- Plant response rating, Soybean [3, 29]: 30
- Plant response rating, Soybean [3, 30]: 30
- Plant response rating, Wheat [4, 29]: 0
- Plant response rating, Wheat [4, 30]: 0
- Plant response rating, Blackgrass [5, 29]: 0
- Plant response rating, Blackgrass [5, 30]: 10
- Plant response rating, Corn [6, 29]: 0
- Plant response rating, Corn [6, 30]: 0
- Plant response rating, Barnyardgrass (Flood) [7]: 0
- Plant response rating, Ryegrass, Italian [8]: 0
- Ryegrass, Italian plant response rating [8]: 0
- Plant response rating, Oat, Wild [9, 29]: 0
- Plant response rating, Oat, Wild [9, 30]: 0
- Plant response rating, Kochia [10, 29]: 0
- Plant response rating, Kochia [10, 30]: 0
- Plant response rating, Oat, Wild [11]: 0
- Oat, Wild plant response rating [11]: 0
- Plant response rating, Soybean [12]: 0
- Soybean plant response rating [12]: 0
- Plant response rating, Pigweed, Palmer [13]: 0
- Pigweed, Palmer plant response rating [13]: 0
- Barnyardgrass plant response rating [14]: 0
- Plant response rating, Barnyardgrass [14]: 0
- Plant response rating, Kochia [15]: 0
- Kochia plant response rating [15]: 0
- Plant response rating, Horseweed [16, 29]: 0
- Plant response rating, Horseweed [16, 30]: 60
- Plant response rating, Blackgrass [17]: 0
- Blackgrass plant response rating [17]: 0
- Plant response rating, Ragweed [18, 29]: 0
- Plant response rating, Ragweed [18, 30]: 0
- Plant response rating, Sedge, Umbrella (Flood) [19]: 0
- Plant response rating, Galium [20, 29]: 0
- Plant response rating, Galium [20, 30]: 0
- Plant response rating, Ragweed [21]: 20
- Ragweed plant response rating [21]: 0
- Plant response rating, Pigweed, Palmer [22, 29]: 0
- Plant response rating, Pigweed, Palmer [22, 30]: 10
- Plant response rating, Ducksalad (Flood) [23]: 0
- Plant response rating, Foxtail, Green [24]: 0
- Foxtail, Green plant response rating [24]: 0
- Plant response rating, Wheat [25]: 0
- Wheat plant response rating [25]: 0
- Plant response rating, Ryegrass, Italian [26, 29]: 0
- Plant response rating, Ryegrass, Italian [26, 30]: 0
- Plant response rating, Foxtail, Green [27, 29]: 0
- Plant response rating, Foxtail, Green [27, 30]: 0
- Plant response rating, Rice (Flood) [28]: 0

SMILES: Cc1ccc(-n2cnc(C3(C)CCC3)n2)cc1C(=O)N1C[C@H](C)Oc2c(Cl)cccc21 [Compound 167]
- Plant response rating, Barnyardgrass [1, 29]: 20
- Plant response rating, Barnyardgrass [1, 30]: 60
- Plant response rating, Corn [2]: 0
- Corn plant response rating [2]: 0
- Plant response rating, Soybean [3, 29]: 100
- Plant response rating, Soybean [3, 30]: 100
- Plant response rating, Wheat [4, 29]: 10
- Plant response rating, Wheat [4, 30]: 20
- Plant response rating, Blackgrass [5, 29]: 0
- Plant response rating, Blackgrass [5, 30]: 70
- Plant response rating, Corn [6, 29]: 10
- Plant response rating, Corn [6, 30]: 20
- Plant response rating, Barnyardgrass (Flood) [7]: 0
- Plant response rating, Ryegrass, Italian [8]: 90
- Ryegrass, Italian plant response rating [8]: 80
- Plant response rating, Oat, Wild [9, 29]: 0
- Plant response rating, Oat, Wild [9, 30]: 20
- Plant response rating, Kochia [10, 29]: 90
- Plant response rating, Kochia [10, 30]: 100
- Plant response rating, Oat, Wild [11]: 50
- Oat, Wild plant response rating [11]: 20
- Plant response rating, Soybean [12]: 80
- Soybean plant response rating [12]: 40
- Plant response rating, Pigweed, Palmer [13]: 100
- Pigweed, Palmer plant response rating [13]: 100
- Barnyardgrass plant response rating [14]: 90
- Plant response rating, Barnyardgrass [14]: 100
- Plant response rating, Kochia [15]: 100
- Kochia plant response rating [15]: 90
- Plant response rating, Horseweed [16, 29]: 10
- Plant response rating, Horseweed [16, 30]: 30
- Plant response rating, Blackgrass [17]: 70
- Blackgrass plant response rating [17]: 30
- Plant response rating, Ragweed [18, 29]: 90
- Plant response rating, Ragweed [18, 30]: 90
- Plant response rating, Sedge, Umbrella (Flood) [19]: 0
- Plant response rating, Galium [20, 29]: 90
- Plant response rating, Galium [20, 30]: 100
- Plant response rating, Ragweed [21]: 80
- Ragweed plant response rating [21]: 10
- Plant response rating, Pigweed, Palmer [22, 29]: 90
- Plant response rating, Pigweed, Palmer [22, 30]: 100
- Plant response rating, Ducksalad (Flood) [23]: 0
- Plant response rating, Foxtail, Green [24]: 100
- Foxtail, Green plant response rating [24]: 100
- Plant response rating, Wheat [25]: 0
- Wheat plant response rating [25]: 0
- Plant response rating, Ryegrass, Italian [26, 29]: 20
- Plant response rating, Ryegrass, Italian [26, 30]: 80
- Plant response rating, Foxtail, Green [27, 29]: 50
- Plant response rating, Foxtail, Green [27, 30]: 90
- Plant response rating, Rice (Flood) [28]: 0
